In patent US20190030114A1, “ISOFORM-SPECIFIC CALPAIN INHIBITORS, METHODS OF IDENTIFICATION, AND USES THEREOF” (WESTERN UNIVERSITY OF HEALTH SCIENCES, priority 2014, published 2019):

Key:
[1] = target: T1, calpain-1 (Homo sapiens, UniProt P07384); conditions: Li et al, 1996; read-out: Ki for calpain-1 (μ-calpain), literature; cited from earlier work
T1 sequence (P07384 1-714): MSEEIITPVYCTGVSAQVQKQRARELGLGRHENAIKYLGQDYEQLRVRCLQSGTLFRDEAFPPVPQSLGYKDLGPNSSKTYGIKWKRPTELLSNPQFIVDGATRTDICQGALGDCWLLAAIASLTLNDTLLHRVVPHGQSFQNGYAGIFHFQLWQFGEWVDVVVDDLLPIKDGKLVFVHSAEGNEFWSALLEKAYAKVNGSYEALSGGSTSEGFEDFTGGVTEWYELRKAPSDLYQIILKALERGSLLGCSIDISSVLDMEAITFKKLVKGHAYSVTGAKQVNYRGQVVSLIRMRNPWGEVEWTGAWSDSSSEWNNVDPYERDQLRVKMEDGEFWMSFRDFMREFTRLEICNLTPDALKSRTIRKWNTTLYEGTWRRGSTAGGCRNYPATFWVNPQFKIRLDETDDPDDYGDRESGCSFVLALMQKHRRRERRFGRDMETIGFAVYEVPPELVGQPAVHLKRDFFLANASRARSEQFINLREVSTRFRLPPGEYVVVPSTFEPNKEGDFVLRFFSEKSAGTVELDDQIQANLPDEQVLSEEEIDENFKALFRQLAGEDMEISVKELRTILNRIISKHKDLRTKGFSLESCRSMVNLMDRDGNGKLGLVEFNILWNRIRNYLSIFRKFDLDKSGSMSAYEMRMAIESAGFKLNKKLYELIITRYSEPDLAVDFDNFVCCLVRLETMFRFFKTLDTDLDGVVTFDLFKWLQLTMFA
T1 sequence (P04632 1-268 partner): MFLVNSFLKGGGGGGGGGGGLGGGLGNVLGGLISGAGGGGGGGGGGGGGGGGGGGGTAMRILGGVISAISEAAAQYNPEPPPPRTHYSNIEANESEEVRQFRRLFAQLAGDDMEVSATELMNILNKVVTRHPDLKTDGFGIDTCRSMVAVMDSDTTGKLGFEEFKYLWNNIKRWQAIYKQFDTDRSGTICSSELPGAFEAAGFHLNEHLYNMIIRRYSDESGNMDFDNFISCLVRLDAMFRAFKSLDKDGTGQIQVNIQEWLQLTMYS

[2] = tested on: stratum radiatum of field CA1 in acute rat hippocampal slices; test: field EPSP recording, TBS-induced LTP in acute rat hippocampal slices; assay type: cell-based; conditions: for LTP after theta-burst stimulation: 200 nM, preincubation prior to TBS
Method: Results are expressed as percent of the average values over a 10 min baseline period and are means±S.E.M. of the indicated number of experiments.
FIG. 3A: Field recording of excitatory postsynaptic potentials (EPSPs) performed in stratum radiatum of field CA1 in acute rat hippocampal slices in the presence or absence of 200 nM of the calpain-2 selective inhibitor, Formula I, (mCalp-I in the drawing). Preincubation with mCalp-I enhances LTP. Results are expressed as percent of the average values over a 10 min baseline period and are means±S.E.M. of the indicated number of experiments.
Results are expressed as percent of the average values over the 10 min baseline period and are means±S.E.M. of the indicated number of experiments.
Generic calpain inhibitors block LTP when administered before LTP induction. Field recording of excitatory postsynaptic potentials (EPSPs; FIG. 2) was performed in stratum radiatum of field CA1 in acute rat hippocampal slices.
A calpain 2-selective inhibitor enhances LTP. […]

[3] = tested on: retina (GCL, RGC), vision; test: acute IOP elevation, intravitreal C2l: GCL cell death, OKR visual acuity, RGC density
Method: FIG. 12C: H&E staining in retinal sections of WT mice after IOP elevation and intravitreal injection of vehicle or C2l. Vehicle or C2l (20 μM, 1 μI) was injected 2 h after IOP elevation or sham surgery. Eyes were collected 3 days after surgery for H&E staining. Scale bar=30 μm.
FIG. 12D: Quantification of GCL cell numbers, based on H&E stains, as described in FIG. 12C.
FIG. 12F: OKR spatial frequency thresholds of eyes measured 3 days after IOP elevation or sham surgery. Vehicle or C2l (20 μM, 1 μI) was injected intravitreally 2 h after surgery. Surgery and injection were always performed in the right eye (OD). OKR of the Left eye (OS) was measured as control.
One-way ANOVA followed by Bonferroni test.
FIG. 12H: RGC density in the retina of the eyes at 21 days after surgery, as described in FIG. 12F. Eyes were collected after OKR test 21 days after surgery. Brn-3a immunostaining was performed in retinal sections of the eyes. Brn-3a-positive cells in GCL were counted.
We used intravitreal C2l injection in order to locally deliver C2l to retina. First, we tested the delivery efficiency by injecting different doses of C2l intravitreally 2 h after IOP elevation in calpain-1 KO mice and analyzing SBDP levels in IPL at 4 h (FIG. 12A and B). […] In all subsequent experiments, 20 μM (1 μl) was used to examine the neuroprotective effects of intravitreal C2l injection. Eyes were collected 3 days after surgery for H&E staining.
To examine vision of mice after glaucoma, we tested the optokinetic reflex (OKR) in mice (FIG. 15A). OKR is the saccadic eye movement triggered by the movement of gratings in front of the mouse eye. Changing the frequency of gratings and determining the […] frequency triggering OKR, allows analyzing visual acuity of each eye. Acute IOP elevation or sham surgery was performed in the right eye (OD). Left eye (OS) served as a naive control. Intravitreal C2l or vehicle injection was performed 2 h after surgery. Three and 21 days after surgery, OKR was determined in both eyes (FIG. 5f,g). […] Mice were sacrificed after OKR test at day 21 and RGC densities were analyzed with brn-3a immunostaining in retinal sections (FIG. 12H).

CCC(NC(=O)C(CC(C)C)NC(=O)OCc1ccccc1)C(=O)C(=O)NCc1cc(OC)cc(OC)c1 (racemic) [Formula 1, Z-Leu-Abu-CONH—CH2-C6H3 (3, 5-(OMe)2)]
Ki [1]: 2300 nM | LTP after theta-burst stimulation [2]: enhances it | LTP after theta-burst stimulation ([2]; listed as mCalp-I): enhances LTP | LTP during the consolidation phase ([2]; applied from 10 min post TBS to 1 hour post TBS): enhanced LTP | RGC counts (H&E), IOP-elevated eyes ([3]; 20 μM (1 μl) intravitreal 2 h after IOP elevation, 3 days): 101.3±9.2 cells/mm | Survival rate in GCL ([3]; 20 μM (1 μl) intravitreal 2 h after IOP elevation, vehicle 47.2±5.4%): 80.8±8.4% | RGC counts (H&E), sham eye ([3]; 20 μM (1 μl) intravitreal 2 h after surgery, 3 days): 128.1±7.2 cells/mm | RGC densities (brn-3a) in IOP elevated eyes ([3]; day 21): recovered | visual acuity (OKR) after increased IOP ([3]; intravitreal 2 h after surgery, day 3 and day 21): significantly improved | visual acuity (OKR) of sham eye versus vehicle ([3]; intravitreal injection in the sham eye): did not affect visual acuity
